# Measurements as given in US20150119363A1, “METHODS OF TREATING BACTERIAL INFECTIONS” (Rampex Pharmaceuticals, Inc., priority 2012, published 2015).
# How the values were obtained:
# [1] = test system: Escherichia coli EC1007 (KPC-3); test: Checkerboard assay, Compound 5 with biapenem; assay type: cell-based; conditions: EC1007
# Description: (§1) The potentiation effect is observed by the reduction of the minimum inhibitory concentration of β-lactam antibiotics in the presence of β-lactamase inhibitors (BLIs). […] Methods for Dilution of Antimicrobial Susceptibility Tests for Bacteria That Grow Aerobically—Eighth Edition; Approved Standard. CLSI Document M07-A8, 2009). In this assay, multiple dilutions of two drugs, namely BLI and β-lactam (biapenem), are being tested, alone and in combination, at concentrations equal to, above and below their respective minimal inhibitory concentrations (MICs). BLIs are solubilized in 10% DMSO at 10 mg/mL. Stock solutions are further diluted, according to the needs of a particular assay, in Mueller Hinton Broth (MHB). Stock solution can be stored at −80° C.
# (§2) The checkerboard (CB) assay is performed in microtiter plates. Biapenem is diluted in the x axis, each column containing a single concentration of antibiotic. BLIs are diluted in the y axis, each row containing an equal concentration of BLI. The result of these manipulations is that each well of the microtiter plate contains a unique combination of concentrations of the two agents. The assay is performed in MHB with a final bacterial inoculum of 5×10^5 CFU/mL (from an early-log phase culture). Microtiter plates are incubated during 20 h at 35° C. and are read using a microtiter plate reader (Molecular Devices) at 650 nm as well as visual observation using a microtiter plate reading mirror.
# [2] = test system: Klebsiella pneumoniae KP1088 (KPC-3, SHV-11, TEM-1); test: Checkerboard assay, Compound 5 with biapenem; assay type: cell-based; conditions: KP1088
# Description: as §1, §2
# [3] = test system: Klebsiella pneumoniae KP1008 (KPC-2); test: Checkerboard assay, Compound 5 with biapenem; assay type: cell-based; conditions: KP1008
# Description: as §1, §2
# [4] = test system: Klebsiella oxytoca KX1018 (KPC-2, SHV-40, OXY-1); test: Checkerboard assay, Compound 5 with biapenem; assay type: cell-based; conditions: KX1018
# Description: as §1, §2
# [5] = test system: Klebsiella pneumoniae KP1084 (KPC-3, SHV-11, TEM-1); test: Checkerboard assay, Compound 5 with biapenem; assay type: cell-based; conditions: KP1084
# Description: as §1, §2
# [6] = test system: Klebsiella oxytoca KX1017 (KPC-2, OXA-2, SHV-30); test: Checkerboard assay, Compound 5 with biapenem; assay type: cell-based; conditions: KX1017
# Description: as §1, §2
# [7] = test system: Klebsiella pneumoniae KP1004 (KPC-2); test: Checkerboard assay, Compound 5 with biapenem; assay type: cell-based; conditions: KP1004
# Description: as §1, §2
# [8] = test system: Enterobacter cloacae ECL1058 (KPC-3, SHV-11, TEM-1); test: Checkerboard assay, Compound 5 with biapenem; assay type: cell-based; conditions: ECL1058
# Description: as §1, §2
# [9] = test system: Klebsiella pneumoniae KP1083 (KPC-3, SHV-1, TEM-1); test: Checkerboard assay, Compound 5 with biapenem; assay type: cell-based; conditions: KP1083
# Description: as §1, §2
# [10] = test system: Klebsiella pneumoniae KP1082 (KPC-2, SHV-1); test: Checkerboard assay, Compound 5 with biapenem; assay type: cell-based; conditions: KP1082
# Description: as §1, §2
# [11] = test system: Enterobacter cloacae ECL1059 (KPC-3, SHV-12, TEM-1); test: Checkerboard assay, Compound 5 with biapenem; assay type: cell-based; conditions: ECL1059
# Description: as §1, §2
# [12] = test system: Klebsiella pneumoniae KP1087 (KPC-2, CTX-M-15, SHV-11, TEM-1); test: Checkerboard assay, Compound 5 with biapenem; assay type: cell-based; conditions: KP1087
# Description: as §1, §2
# [13] = test system: Klebsiella oxytoca KX1019 (KPC-2, OXA-2); test: Checkerboard assay, Compound 5 with biapenem; assay type: cell-based; conditions: KX1019
# Description: as §1, §2
# [14] = test system: bacterial strains that expressed the beta-lactamase, KPC-2 alone or in combination with NDM-1; test: Biapenem MIC at various concentrations of Compound 5 (summary); assay type: cell-based
# KP1008 KPC-2 = test: Dose titration biapenem potentiation assay (MPC1); assay type: cell-based, Klebsiella pneumoniae; conditions: biapenem 1 μg/mL
# [15] = test system: bacterial strains that expressed the beta-lactamase, NDM-1 and CMY-6; test: Aztreonam/Tigemonam MIC at various concentrations of BLI (summary); assay type: cell-based
# Procedure: MIC values for each bacterial strain were measured for each antimicrobial compound at various concentrations of each BLI.
smiles,measurement,setting,value
"O=C(O)C[C@@H]1CC[C@H](NC(=O)Cc2cccs2)B(O)O1 [Compound 5, 2-((3R,6S)-2-hydroxy-3-(2-(thiophen-2-yl)acetamido)-1,2-oxaborinan-6-yl)acetic acid]",Biapenem MIC,[1]; Compound 5 0.31 mg/L,X (X = MIC of less than 0.5 mg/L.)
same,Biapenem MIC,[1]; Compound 5 0.625 mg/L,X (X = MIC of less than 0.5 mg/L.)
same,Biapenem MIC,[1]; Compound 5 5 mg/L,X (X = MIC of less than 0.5 mg/L.)
same,Biapenem MIC,[1]; Compound 5 […],X (X = MIC of less than 0.5 mg/L.)
same,Biapenem MIC,[2]; Compound 5 0.31 mg/L,X (X = MIC of less than 0.5 mg/L.)
same,Biapenem MIC,[2]; Compound 5 0.625 mg/L,X (X = MIC of less than 0.5 mg/L.)
same,Biapenem MIC,[2]; Compound 5 5 mg/L,X (X = MIC of less than 0.5 mg/L.)
same,Biapenem MIC,[2]; Compound 5 10 mg/L,X (X = MIC of less than 0.5 mg/L.)
same,Biapenem MIC,[3]; Compound 5 0.31 mg/L,X (X = MIC of less than 0.5 mg/L.)
same,Biapenem MIC,[3]; Compound 5 0.625 mg/L,X (X = MIC of less than 0.5 mg/L.)
same,Biapenem MIC,[3]; Compound 5 5 mg/L,NG (NG = No Growth.)
same,Biapenem MIC,[3]; Compound 5 10 mg/L,NG (NG = No Growth.)
same,Biapenem MIC,[3]; Compound 5 […],X (X = MIC of less than 0.5 mg/L.)
same,Biapenem MIC,[4]; Compound 5 0.31 mg/L,X (X = MIC of less than 0.5 mg/L.)
same,Biapenem MIC,[4]; Compound 5 0.625 mg/L,X (X = MIC of less than 0.5 mg/L.)
same,Biapenem MIC,[4]; Compound 5 5 mg/L,NG (NG = No Growth.)
same,Biapenem MIC,[4]; Compound 5 10 mg/L,NG (NG = No Growth.)
same,Biapenem MIC,[4]; Compound 5 […],X (X = MIC of less than 0.5 mg/L.)
same,Biapenem MIC,[5]; Compound 5 0.31 mg/L,Z (Z = MIC of greater than 4 mg/L.)
same,Biapenem MIC,[5]; Compound 5 0.625 mg/L,Z (Z = MIC of greater than 4 mg/L.)
same,Biapenem MIC,[5]; Compound 5 5 mg/L,X (X = MIC of less than 0.5 mg/L.)
same,Biapenem MIC,[5]; Compound 5 10 mg/L,X (X = MIC of less than 0.5 mg/L.)
same,Biapenem MIC,[6]; Compound 5 0.31 mg/L,Y (Y = MIC of 0.5 mg/L to 4 mg/L.)
same,Biapenem MIC,[6]; Compound 5 0.625 mg/L,X (X = MIC of less than 0.5 mg/L.)
same,Biapenem MIC,[6]; Compound 5 5 mg/L,X (X = MIC of less than 0.5 mg/L.)
same,Biapenem MIC,[6]; Compound 5 10 mg/L,X (X = MIC of less than 0.5 mg/L.)
same,Biapenem MIC,[7]; Compound 5 0.31 mg/L,X (X = MIC of less than 0.5 mg/L.)
same,Biapenem MIC,[7]; Compound 5 0.625 mg/L,X (X = MIC of less than 0.5 mg/L.)
same,Biapenem MIC,[7]; Compound 5 5 mg/L,X (X = MIC of less than 0.5 mg/L.)
same,Biapenem MIC,[7]; Compound 5 10 mg/L,X (X = MIC of less than 0.5 mg/L.)
same,Biapenem MIC,[7]; Compound 5 […],X (X = MIC of less than 0.5 mg/L.)
same,Biapenem MIC,[8]; Compound 5 0.31 mg/L,Y (Y = MIC of 0.5 mg/L to 4 mg/L.)
same,Biapenem MIC,[8]; Compound 5 0.625 mg/L,Y (Y = MIC of 0.5 mg/L to 4 mg/L.)
same,Biapenem MIC,[8]; Compound 5 5 mg/L,X (X = MIC of less than 0.5 mg/L.)
same,Biapenem MIC,[8]; Compound 5 10 mg/L,X (X = MIC of less than 0.5 mg/L.)
same,Biapenem MIC,[9]; Compound 5 0.31 mg/L,X (X = MIC of less than 0.5 mg/L.)
same,Biapenem MIC,[9]; Compound 5 0.625 mg/L,X (X = MIC of less than 0.5 mg/L.)
same,Biapenem MIC,[9]; Compound 5 5 mg/L,X (X = MIC of less than 0.5 mg/L.)
same,Biapenem MIC,[10]; Compound 5 0.31 mg/L,X (X = MIC of less than 0.5 mg/L.)
same,Biapenem MIC,[10]; Compound 5 0.625 mg/L,X (X = MIC of less than 0.5 mg/L.)
same,Biapenem MIC,[10]; Compound 5 5 mg/L,X (X = MIC of less than 0.5 mg/L.)
same,Biapenem MIC,[10]; Compound 5 10 mg/L,X (X = MIC of less than 0.5 mg/L.)
same,Biapenem MIC,[10]; Compound 5 […],X (X = MIC of less than 0.5 mg/L.)
same,Biapenem MIC,[11]; Compound 5 0.31 mg/L,X (X = MIC of less than 0.5 mg/L.)
same,Biapenem MIC,[11]; Compound 5 0.625 mg/L,X (X = MIC of less than 0.5 mg/L.)
same,Biapenem MIC,[11]; Compound 5 5 mg/L,X (X = MIC of less than 0.5 mg/L.)
same,Biapenem MIC,[11]; Compound 5 10 mg/L,X (X = MIC of less than 0.5 mg/L.)
same,Biapenem MIC,[11]; Compound 5 […],X (X = MIC of less than 0.5 mg/L.)
same,Biapenem MIC,[12]; Compound 5 0.31 mg/L,Z (Z = MIC of greater than 4 mg/L.)
same,Biapenem MIC,[12]; Compound 5 0.625 mg/L,Z (Z = MIC of greater than 4 mg/L.)
same,Biapenem MIC,[12]; Compound 5 5 mg/L,X (X = MIC of less than 0.5 mg/L.)
same,Biapenem MIC,[13]; Compound 5 0.31 mg/L,Y (Y = MIC of 0.5 mg/L to 4 mg/L.)
same,Biapenem MIC,[13]; Compound 5 0.625 mg/L,Y (Y = MIC of 0.5 mg/L to 4 mg/L.)
same,Biapenem MIC,[13]; Compound 5 5 mg/L,X (X = MIC of less than 0.5 mg/L.)
same,Biapenem MIC,[13]; Compound 5 10 mg/L,X (X = MIC of less than 0.5 mg/L.)
same,Biapenem MIC,[13]; Compound 5 […],Y (Y = MIC of 0.5 mg/L to 4 mg/L.)
same,effect on Biapenem MIC,[14],decreased the Biapenem MIC
same,BPM MPC1 KP1008 KPC-2,KP1008 KPC-2,X (X = MPC1 of less than 1 μg/mL.)
same,effect on Aztreonam or Tigemonam MICs,[15],decreased the Aztreonam or Tigemonan MICs
